Our source for the % of inhibition and % of control values is ChEMBL document CHEMBL5465560, “Selectivity Literature for EUbOPEN Chemogenomic Library” (2024).

For assay [1], the target named is Protein kinase C delta type (Homo sapiens) (UniProt Q05655). The assay can be described thus: Selectivity interaction (SelectScreen profiling (Invitrogen)) EUB0000607a PRKCD. The conditions noted are these: at 2 µM.
Assay [2] addresses T1, Aurora kinase A (Homo sapiens) (UniProt O14965).
T1 sequence (whole entry): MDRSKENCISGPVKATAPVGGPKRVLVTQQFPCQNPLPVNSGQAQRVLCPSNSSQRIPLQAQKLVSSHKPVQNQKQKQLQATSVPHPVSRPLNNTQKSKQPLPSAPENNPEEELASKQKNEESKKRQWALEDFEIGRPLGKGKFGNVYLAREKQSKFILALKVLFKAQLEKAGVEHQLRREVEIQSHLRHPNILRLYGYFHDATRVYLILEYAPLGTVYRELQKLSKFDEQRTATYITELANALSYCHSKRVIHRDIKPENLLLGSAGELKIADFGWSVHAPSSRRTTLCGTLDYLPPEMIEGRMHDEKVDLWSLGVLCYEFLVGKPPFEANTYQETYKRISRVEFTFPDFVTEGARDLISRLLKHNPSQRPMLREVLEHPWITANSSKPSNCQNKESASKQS
The assay can be described thus: Selectivity interaction (KinomeScan (DiscoverX)) EUB0000666a STK6. Particulars: at 10 µM.

In assay [3] the target is Calcium/calmodulin-dependent protein kinase type 1D (Homo sapiens) (UniProt Q8IU85). Briefly: Selectivity interaction (KinomeScan (DiscoverX)) EUB0001079a CAMK1D. Particulars: at 1 µM.
Assay [4] deals with T2, cGMP-dependent protein kinase 1 (Homo sapiens) (UniProt Q13976).
T2 sequence (whole entry): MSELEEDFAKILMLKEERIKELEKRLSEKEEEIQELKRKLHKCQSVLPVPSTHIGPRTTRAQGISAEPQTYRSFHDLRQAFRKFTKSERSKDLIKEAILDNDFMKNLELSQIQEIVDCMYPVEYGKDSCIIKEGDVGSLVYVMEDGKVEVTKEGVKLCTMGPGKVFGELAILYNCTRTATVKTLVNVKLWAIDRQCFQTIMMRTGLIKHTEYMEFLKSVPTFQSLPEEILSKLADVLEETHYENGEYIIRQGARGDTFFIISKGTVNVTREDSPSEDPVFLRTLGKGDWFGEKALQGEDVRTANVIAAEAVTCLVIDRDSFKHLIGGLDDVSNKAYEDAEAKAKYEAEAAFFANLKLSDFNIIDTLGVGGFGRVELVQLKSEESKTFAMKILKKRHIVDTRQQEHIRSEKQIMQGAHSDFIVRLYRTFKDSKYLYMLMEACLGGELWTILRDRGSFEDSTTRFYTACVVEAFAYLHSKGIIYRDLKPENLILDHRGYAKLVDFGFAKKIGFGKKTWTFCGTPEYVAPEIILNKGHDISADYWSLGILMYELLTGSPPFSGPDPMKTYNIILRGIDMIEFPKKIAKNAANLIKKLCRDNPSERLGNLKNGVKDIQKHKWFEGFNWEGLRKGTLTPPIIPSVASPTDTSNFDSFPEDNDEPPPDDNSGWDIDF
Briefly: Selectivity interaction (KinomeScan (DiscoverX)) EUB0001619a PRKG1. Particulars: at 1 µM.

Assay [5] addresses Cyclin-dependent kinase 2 (Homo sapiens, UniProt P24941). Briefly: Selectivity interaction (ActivX KiNativ screen (kinase selectivity in THP-1 cell lysates)) EUB0000639a CDK2. Type of assay: subcellular. Particulars: lysate, at 5 µM.
Assay [6] deals with RAC-gamma serine/threonine-protein kinase (Homo sapiens, UniProt Q9Y243). The assay can be described thus: Selectivity interaction (Kinase screening (Nanosyn)) EUB0000604a AKT3.
Assay [7] concerns the target T3, Phosphatidylinositol 3-kinase C2 domain-containing subunit gamma (Homo sapiens) (UniProt O75747).
T3 sequence (whole entry): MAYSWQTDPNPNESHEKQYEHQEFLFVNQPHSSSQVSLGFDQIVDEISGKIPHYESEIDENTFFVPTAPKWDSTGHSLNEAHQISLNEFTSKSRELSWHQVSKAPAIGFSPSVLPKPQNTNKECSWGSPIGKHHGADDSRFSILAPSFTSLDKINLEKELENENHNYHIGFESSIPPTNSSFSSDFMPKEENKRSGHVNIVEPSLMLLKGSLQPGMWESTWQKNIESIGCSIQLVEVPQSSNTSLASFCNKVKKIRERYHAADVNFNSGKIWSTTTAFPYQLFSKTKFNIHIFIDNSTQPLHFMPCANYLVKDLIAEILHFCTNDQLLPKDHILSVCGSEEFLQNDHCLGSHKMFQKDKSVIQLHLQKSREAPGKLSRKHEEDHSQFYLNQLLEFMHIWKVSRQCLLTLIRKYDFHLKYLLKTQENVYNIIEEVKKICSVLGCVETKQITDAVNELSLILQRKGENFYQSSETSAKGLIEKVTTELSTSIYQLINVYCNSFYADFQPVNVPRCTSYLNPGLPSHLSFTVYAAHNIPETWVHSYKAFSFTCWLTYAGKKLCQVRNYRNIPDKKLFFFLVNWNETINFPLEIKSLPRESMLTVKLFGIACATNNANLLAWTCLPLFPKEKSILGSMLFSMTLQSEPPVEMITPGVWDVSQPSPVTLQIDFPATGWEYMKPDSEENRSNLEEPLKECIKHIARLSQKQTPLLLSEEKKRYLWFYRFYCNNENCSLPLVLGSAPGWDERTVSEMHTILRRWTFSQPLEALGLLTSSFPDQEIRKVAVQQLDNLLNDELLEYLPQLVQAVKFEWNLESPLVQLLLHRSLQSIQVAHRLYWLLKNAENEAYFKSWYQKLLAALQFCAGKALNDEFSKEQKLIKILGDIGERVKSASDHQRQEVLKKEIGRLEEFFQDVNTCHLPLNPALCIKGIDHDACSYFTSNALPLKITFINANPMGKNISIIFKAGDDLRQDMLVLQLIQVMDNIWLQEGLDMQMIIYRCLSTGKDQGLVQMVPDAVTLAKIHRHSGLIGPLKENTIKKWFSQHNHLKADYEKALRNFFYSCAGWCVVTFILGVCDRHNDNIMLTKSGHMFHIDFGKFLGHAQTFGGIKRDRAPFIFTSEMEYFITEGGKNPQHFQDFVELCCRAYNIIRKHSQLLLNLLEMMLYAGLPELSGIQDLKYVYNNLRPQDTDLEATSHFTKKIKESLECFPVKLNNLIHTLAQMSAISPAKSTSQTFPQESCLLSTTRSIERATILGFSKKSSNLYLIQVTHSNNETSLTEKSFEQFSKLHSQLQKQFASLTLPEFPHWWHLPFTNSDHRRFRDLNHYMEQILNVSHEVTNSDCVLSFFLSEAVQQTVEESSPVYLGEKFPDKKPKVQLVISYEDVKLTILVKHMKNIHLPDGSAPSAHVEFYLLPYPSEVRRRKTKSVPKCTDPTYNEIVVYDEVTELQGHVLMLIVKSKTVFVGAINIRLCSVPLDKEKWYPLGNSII
The assay can be described thus: Selectivity interaction (KinomeScan (DiscoverX)) EUB0000695a PIK3C2G. Particulars: at 100 nM.

In assay [8] the target is Activated CDC42 kinase 1 (Homo sapiens, UniProt Q07912). Briefly: Selectivity interaction (KinomeScan (DiscoverX)) EUB0000695a TNK2. Particulars: at 100 nM.
The target in assay [9] is Vascular endothelial growth factor receptor 1 (Homo sapiens) (UniProt P17948). The conditions noted are these: at 10 µM.
Vascular endothelial growth factor receptor 1 (Homo sapiens), sequence (P17948 whole entry): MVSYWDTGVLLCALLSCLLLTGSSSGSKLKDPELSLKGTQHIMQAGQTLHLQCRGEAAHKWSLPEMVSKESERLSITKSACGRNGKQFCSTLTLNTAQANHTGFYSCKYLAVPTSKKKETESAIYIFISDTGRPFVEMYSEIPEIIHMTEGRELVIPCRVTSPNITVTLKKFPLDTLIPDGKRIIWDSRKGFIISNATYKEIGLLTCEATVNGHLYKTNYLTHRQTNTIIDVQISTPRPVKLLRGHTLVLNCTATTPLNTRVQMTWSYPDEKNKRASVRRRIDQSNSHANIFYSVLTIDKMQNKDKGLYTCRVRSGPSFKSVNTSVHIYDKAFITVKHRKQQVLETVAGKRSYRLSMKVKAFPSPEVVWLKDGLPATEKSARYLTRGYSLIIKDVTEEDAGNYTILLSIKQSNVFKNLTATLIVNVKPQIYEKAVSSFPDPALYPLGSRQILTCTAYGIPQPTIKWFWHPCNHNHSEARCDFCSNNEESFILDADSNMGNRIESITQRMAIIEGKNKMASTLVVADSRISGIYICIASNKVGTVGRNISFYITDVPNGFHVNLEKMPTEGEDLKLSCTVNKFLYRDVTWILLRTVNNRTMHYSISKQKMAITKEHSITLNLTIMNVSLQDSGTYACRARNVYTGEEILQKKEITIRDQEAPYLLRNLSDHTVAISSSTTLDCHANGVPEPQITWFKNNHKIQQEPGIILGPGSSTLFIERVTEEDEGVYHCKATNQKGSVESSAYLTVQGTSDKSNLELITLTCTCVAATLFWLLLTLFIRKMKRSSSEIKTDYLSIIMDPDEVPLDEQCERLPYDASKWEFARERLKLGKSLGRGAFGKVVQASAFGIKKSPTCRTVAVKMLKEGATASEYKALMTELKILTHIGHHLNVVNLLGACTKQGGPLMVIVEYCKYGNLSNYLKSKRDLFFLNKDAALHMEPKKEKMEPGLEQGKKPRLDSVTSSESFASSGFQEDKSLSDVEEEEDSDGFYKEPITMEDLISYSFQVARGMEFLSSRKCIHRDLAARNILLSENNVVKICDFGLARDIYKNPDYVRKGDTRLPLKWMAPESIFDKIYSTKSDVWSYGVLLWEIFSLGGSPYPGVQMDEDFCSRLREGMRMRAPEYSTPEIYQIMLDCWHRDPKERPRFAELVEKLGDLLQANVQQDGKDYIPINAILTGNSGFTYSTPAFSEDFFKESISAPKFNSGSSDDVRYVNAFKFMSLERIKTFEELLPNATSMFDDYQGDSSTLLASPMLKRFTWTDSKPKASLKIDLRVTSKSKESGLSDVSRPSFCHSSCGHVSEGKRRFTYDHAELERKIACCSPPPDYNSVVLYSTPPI

RAC-gamma serine/threonine-protein kinase, sequence (Q9Y243 whole entry, the tested form may be a part): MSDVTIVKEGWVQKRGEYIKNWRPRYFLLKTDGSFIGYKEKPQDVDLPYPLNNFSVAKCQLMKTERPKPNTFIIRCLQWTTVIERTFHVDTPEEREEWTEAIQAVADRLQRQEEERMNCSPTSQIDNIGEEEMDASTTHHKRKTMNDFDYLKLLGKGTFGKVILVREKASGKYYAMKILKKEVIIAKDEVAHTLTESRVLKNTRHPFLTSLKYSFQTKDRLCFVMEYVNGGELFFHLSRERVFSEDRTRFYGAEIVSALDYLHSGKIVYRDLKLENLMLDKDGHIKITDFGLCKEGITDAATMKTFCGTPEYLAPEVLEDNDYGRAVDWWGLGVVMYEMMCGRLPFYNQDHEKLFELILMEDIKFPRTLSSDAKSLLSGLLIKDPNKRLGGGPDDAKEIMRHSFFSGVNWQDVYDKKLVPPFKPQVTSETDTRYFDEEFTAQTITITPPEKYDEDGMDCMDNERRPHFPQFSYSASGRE
Protein kinase C delta type (Homo sapiens), sequence (Q05655 whole entry, looked up): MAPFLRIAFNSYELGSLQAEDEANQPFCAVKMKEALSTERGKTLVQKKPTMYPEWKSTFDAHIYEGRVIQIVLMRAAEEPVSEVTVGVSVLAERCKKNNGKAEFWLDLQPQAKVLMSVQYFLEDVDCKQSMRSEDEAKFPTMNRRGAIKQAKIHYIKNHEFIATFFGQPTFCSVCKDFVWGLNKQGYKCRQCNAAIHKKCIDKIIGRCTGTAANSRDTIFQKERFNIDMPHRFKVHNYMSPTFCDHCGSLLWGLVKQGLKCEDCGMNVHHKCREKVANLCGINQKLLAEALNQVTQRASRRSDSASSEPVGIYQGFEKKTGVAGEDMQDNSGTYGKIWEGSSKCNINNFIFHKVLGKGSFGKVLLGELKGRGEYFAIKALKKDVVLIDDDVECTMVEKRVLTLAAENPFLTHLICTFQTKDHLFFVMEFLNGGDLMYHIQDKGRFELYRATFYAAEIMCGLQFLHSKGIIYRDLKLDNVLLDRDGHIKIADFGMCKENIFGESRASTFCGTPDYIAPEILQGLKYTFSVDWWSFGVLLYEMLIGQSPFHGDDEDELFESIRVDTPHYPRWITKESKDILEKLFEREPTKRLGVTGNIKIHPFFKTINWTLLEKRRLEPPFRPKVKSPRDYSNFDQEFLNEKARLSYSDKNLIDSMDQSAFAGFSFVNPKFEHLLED
Activated CDC42 kinase 1, sequence (Q07912 whole entry, looked up): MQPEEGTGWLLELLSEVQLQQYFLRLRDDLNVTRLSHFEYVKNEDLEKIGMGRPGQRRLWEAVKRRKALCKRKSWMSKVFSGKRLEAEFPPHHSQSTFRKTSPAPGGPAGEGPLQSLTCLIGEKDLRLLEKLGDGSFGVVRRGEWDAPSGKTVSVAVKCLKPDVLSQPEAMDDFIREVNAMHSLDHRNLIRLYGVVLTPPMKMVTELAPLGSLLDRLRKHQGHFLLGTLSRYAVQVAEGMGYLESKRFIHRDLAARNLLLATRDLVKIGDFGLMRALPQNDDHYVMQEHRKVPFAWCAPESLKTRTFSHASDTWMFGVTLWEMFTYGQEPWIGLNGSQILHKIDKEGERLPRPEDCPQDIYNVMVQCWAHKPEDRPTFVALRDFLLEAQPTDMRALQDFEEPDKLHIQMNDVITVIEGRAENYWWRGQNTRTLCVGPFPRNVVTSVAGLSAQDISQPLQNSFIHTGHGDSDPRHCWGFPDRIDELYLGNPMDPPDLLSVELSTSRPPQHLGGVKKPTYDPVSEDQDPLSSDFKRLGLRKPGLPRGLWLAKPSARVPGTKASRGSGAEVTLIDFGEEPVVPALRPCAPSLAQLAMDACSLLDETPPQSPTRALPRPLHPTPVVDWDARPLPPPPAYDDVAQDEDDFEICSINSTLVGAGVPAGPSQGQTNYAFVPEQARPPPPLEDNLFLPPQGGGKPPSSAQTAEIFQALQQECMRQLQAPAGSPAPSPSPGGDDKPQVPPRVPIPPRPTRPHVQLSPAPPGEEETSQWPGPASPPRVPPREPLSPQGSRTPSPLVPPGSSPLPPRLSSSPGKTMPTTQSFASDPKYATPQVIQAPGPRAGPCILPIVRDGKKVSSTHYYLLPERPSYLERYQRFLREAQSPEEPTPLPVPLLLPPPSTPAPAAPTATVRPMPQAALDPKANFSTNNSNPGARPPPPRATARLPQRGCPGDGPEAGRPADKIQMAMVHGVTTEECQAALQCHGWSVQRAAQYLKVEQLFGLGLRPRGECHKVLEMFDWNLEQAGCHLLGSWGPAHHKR
Calcium/calmodulin-dependent protein kinase type 1D (Homo sapiens), sequence (Q8IU85 whole entry, looked up): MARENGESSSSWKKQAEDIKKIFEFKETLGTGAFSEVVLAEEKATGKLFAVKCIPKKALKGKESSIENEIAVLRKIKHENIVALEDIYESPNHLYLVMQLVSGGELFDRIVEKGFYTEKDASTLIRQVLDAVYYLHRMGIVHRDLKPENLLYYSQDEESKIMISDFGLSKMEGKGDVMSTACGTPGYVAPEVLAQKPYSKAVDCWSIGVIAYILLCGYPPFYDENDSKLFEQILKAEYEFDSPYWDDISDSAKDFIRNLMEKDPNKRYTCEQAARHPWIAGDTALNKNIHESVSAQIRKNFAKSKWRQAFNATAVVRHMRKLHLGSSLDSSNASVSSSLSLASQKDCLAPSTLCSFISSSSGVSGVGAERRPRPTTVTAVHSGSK

In assay [1], `CNC(=O)Nc1ccc(-c2nc(N3CC4CCC(C3)O4)c3cnn(C4CCC5(CC4)OCCO5)c3n2)cc1` displayed a % of inhibition of 16%.

The compound `O=C(NOC[C@H](O)CO)c1ccc(F)c(F)c1Nc1ccc(I)cc1F` registered a % of control in assay [2] of 100%.

Consider `Nc1cnc(N2CCc3cc(S(=O)(=O)Nc4c(F)cc(Cl)cc4F)cc(N4CCCC4=O)c32)nc1` [TP-020n], for which, in assay [3], the % of control is 97%. `N#Cc1cccc(-c2c[nH]c3ncnc(N4CCOCC4)c23)c1`: the % of control in [4] was found to be 99%. In assay [5], `CC[C@@H]1[C@H](F)C(=O)N[C@@H]1COc1nccc2cc(C(N)=O)c(OC)cc12` [ZIMLOVISERTIB] returned a % of inhibition of 3%. On to `Cc1cnc(Nc2ccc(F)cc2Cl)nc1-c1c[nH]c(C(=O)N[C@H](CO)c2cccc(Cl)c2)c1`, for which the % of inhibition in [6] is 0%. `Cc1cc(F)c(C(=O)Nc2cccc(-c3nncn3C(C)C)n2)cc1-n1cnc(C2CC2)c1`: the % of control in assay [7] came to 87%; in [8] it was 98%.

`COCC(=O)NC/C=C/c1ccc2ncnc(Nc3ccc(Oc4ccc(C)nc4)c(C)c3)c2c1` [CP-724714] came in with a % of control in [9] of 88%.
